# Measurements as given in US10030027B2, “Soluble guanylate cyclase stimulators” (MERCK SHARP & DOHME CORP., priority 2015, dated 2018).
# pEC50, pKi: −log10 of the molar value.
# Assays:
# [1] = biological target: sGC α1/β1 heterodimer (Homo sapiens (Human), UniProt Q02108+Q02153); experiment: Cell-based sGC functional assay (cyclic GMP assay for sGC activator: CASA assay); parameters: % Activation: concentration or dose not given beside the values; conditions: CHO-K1/sGC cells; for pEC50: inflection point, 4P fit, read-out: IP; for Emax: CHO-K1, activity expressed as percentage of compound A (standard), read-out: % Activation
# Method in brief: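 CHO-K1 cells stably expressing sGC α1/β1 were pre-incubated with or without 1 μM DETA-NO (30 min, 25 °C), then exposed to compounds for 1 hr at 37 °C with 0.5 mM IBMX. Intracellular cGMP was read by HTRF and expressed as a percentage of a reference heme-dependent activator's maximum.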
# [2] = biological target: human recombinant sGC enzyme (Homo sapiens (Human), UniProt Q02108+Q02153); experiment: Size Exclusion Chromatography (SEC) competition binding assay using [3H] Ex-77B as the radioligand; conditions: [3H] Ex-77B radioligand, 24 hours at 37° C.
# Method in brief: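 Recombinant human sGC binding measured by competition against tritiated Ex-77B radioligand, with non-specific binding defined by 1 μM unlabeled Ex-77B.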
pEC50 [1],pKi [2],Emax [1],% Activation ([1]; activity expressed as percentage of compound A (standard)),Structure (SMILES)
5.61,9.53,–,–,"CC1(c2cccc(-c3nn[nH]n3)c2)C(=O)Nc2nc(-c3nn(CCC(F)(F)C(F)(F)F)c4ncccc34)nc(N)c21 (single isomer, unassigned) [Example 252B, 4-amino-5-methyl-2-[1-(3,3,4,4,4-pentafluorobutyl)-1H-pyrazolo[3,4-b]pyridin-3-yl]-5-[3-(2H-tetrazol-5-yl)phenyl]-5,7-dihydro-6H-pyrrolo[2,3-d] pyrimidin-6-one]"
6.13,10.12,104%,–,"C[C@@]1(c2ccc(CCc3nn[nH]n3)cc2)C(=O)Nc2nc(-c3nn(Cc4ccccc4F)c4ncccc34)nc(N)c21 [Example 240B, (S)-4-amino-2-[1-(2-fluoro-benzyl)-1H-pyrazolo[3,4-b]pyridin-3-yl]-5-methyl-5-{4-[2-(2H-tetrazol-5-yl)ethyl]phenyl}-5,7-dihydro-6H-pyrrolo[2,3-d] pyrimidin-6-one]"
6.43,10.24,114%,–,"CC(C)(Cc1coc(C2(C3CC3)C(=O)Nc3nc(-c4nn(Cc5ccccc5F)c5cc(Cl)ccc45)nc(N)c32)n1)C(=O)O (stereo not drawn) [Example 138B, 3-(2-{4-amino-2-[6-chloro-1-(2-fluorobenzyl)-1H-indazol-3-yl]-5-cyclopropyl-6-oxo-6,7-dihydro-5H-pyrrolo[2,3-d]pyrimidin-5-yl}-1,3-oxazol-4-yl)-2,2-dimethylpropanoic acid]"
5.56,10.20,93.3%,–,"CC1(c2ccc(Cc3nn[nH]n3)cc2)C(=O)Nc2nc(-c3nn(Cc4ccccc4F)c4cc(Cl)ccc34)nc(N)c21 (stereo not drawn) [Example 244A, 5-{4-[(2H-tetrazol-5-yl)methyl]phenyl}-4-amino-2-[6-chloro-2-(2-fluorobenzyl)-1H-indazol-3-yl]-5-methyl-5,7-dihydro-6H-pyrrolo[2,3-d] pyrimidin-6-one]"
6.25,8.51,109%,–,"Cc1ccccc1Cn1nc(-c2nc(N)c3c(n2)NC(=O)[C@@]3(C)c2ccc(CCC(=O)O)cc2)c2ccc(Cl)cc21 [Example 68B, (S)-3-(4-{4-amino-2-[6-chloro-1-(2-methylbenzyl)-1H-indazol-3-yl]-5-methyl-6-oxo-6,7-dihydro-5H-pyrrolo[2,3-d]pyrimidin-5-yl}phenyl)propanoic acid]"
5.44,10.21,101%,–,"CC1(c2cc(-c3nn[nH]n3)ccn2)C(=O)Nc2nc(-c3nn(Cc4ccccc4F)c4cc(Cl)ccc34)nc(N)c21 (stereo not drawn) [Example 243A, 5-[4-(2H-tetrazol-5-yl)pyridin-2-yl]-4-amino-2-[6-chloro-1-(2-fluorobenzyl)-1H-indazol-3-yl]-5-methyl-5,7-dihydro-6H-pyrrolo[2,3-d] pyrimidin-6-one]"
6.34,9.47,140%,–,"Cc1cccc(Cn2nc(-c3nc(N)c4c(n3)NC(=O)[C@@]4(C)c3ccc(CCC(=O)O)cc3)c3ccccc32)c1 [Example 225B, (S)-3-(4-{4-amino-5-methyl-2-[1-(3-methylbenzyl)-1H-indazol-3-yl]-6-oxo-6,7-dihydro-5H-pyrrolo[2,3-d]pyrimidin-5-yl}phenyl)propanoic acid]"
5.90,9.07,88%,–,"C[C@@]1(c2nc(CCC(=O)O)cs2)C(=O)Nc2nc(-c3nn(CCCC(F)(F)F)c4ncccc34)nc(N)c21 [Example 88B, (S)-3-(2-{4-amino-5-methyl-6-oxo-2-[1-(4,4,4-trifluorobutyl)-1H-pyrazolo[3,4-b]pyridin-3-yl]-6,7-dihydro-5H-pyrrolo[2,3-d]pyrimidin-5-yl}-1,3-thiazol-4-yl)propanoic acid]"
6.48,9.74,–,107%,"CC1CCC(Cn2nc(-c3nc(N)c4c(n3)NC(=O)[C@@]4(C)c3ccc(CCC(=O)O)cc3)c3ccc(Cl)cc32)CC1 (single isomer, unassigned) [Example 5BB]"
5.23,9.71,93.3%,–,"C[C@@]1(c2ccc(CCc3nn[nH]n3)cc2)C(=O)Nc2nc(-c3nn(CCC(F)(F)C(F)(F)F)c4cc(Cl)ccc34)nc(N)c21 (single isomer, unassigned) [Example 237B]"
7.31,10.51,120%,–,"CC(C)(Cc1csc([C@]2(C)C(=O)Nc3nc(-c4nn(Cc5c(F)ccc(F)c5F)c5cc(Cl)ccc45)nc(N)c32)n1)C(=O)O [Example 190A, (S)-3-(2-{4-amino-2-[6-chloro-1-(2,3,6-trifluoro-benzyl)-1H-indazol-3-yl]-5-methyl-6-oxo-6,7-dihydro-5H-pyrrolo[2,3-d]pyrimidin-5-yl}-1,3-thiazol-4-yl)-2,2-dimethyl-propanoic acid]"
6.54,10.09,121%,–,"CC(C)(Cc1coc(C2(C)C(=O)Nc3nc(-c4nn(CC5CCCC5)c5cc(Cl)ccc45)nc(N)c32)n1)C(=O)O (stereo not drawn) [Example 161A, 3-(2-{4-amino-2-[6-chloro-1-(cyclopentylmethyl)-1H-indazol-3-yl]-5-methyl-6-oxo-6,7-dihydro-5H-pyrrolo[2,3-d]pyrimidin-5-yl}-1,3-oxazol-4-yl)-2,2-dimethyl-propanoic acid]"
6.61,10.54,97.1%,–,"Cc1cccc(Cn2nc(-c3nc(N)c4c(n3)NC(=O)C4(C)c3nc(CC(C)(C)C(=O)O)co3)c3ccc(Cl)cc32)c1F (stereo not drawn) [Example 187A, 3-(2-{4-amino-2-[6-chloro-1-(2-fluoro-3-methyl-benzyl)-1H-indazol-3-yl]-5-methyl-6-oxo-6,7-dihydro-5H-pyrrolo[2,3-d]pyrimidin-5-yl}-1,3-oxazol-4-yl)-2,2-dimethyl-propanoic acid]"
5.03,8.95,86%,–,"CCCCn1nc(-c2nc(N)c3c(n2)NC(=O)[C@@]3(C)c2ccc(CCC(=O)O)cc2)c2ccc(C)nc21 [Example 111B, (S)-3-{4-{4-amino-2-(1-butyl-6-methyl-1H-pyrazolo[3,4-b]pyridin-3-yl)-5-methyl-6-oxo-6,7-dihydro-5H-pyrrolo[2,3-d]pyrimidin-5-yl}phenyl}propanoic acid]"
6.53,10.13,–,–,"CC1(N2CCC(CCC(=O)O)C2)C(=O)Nc2nc(-c3nn(Cc4ccccc4F)c4cc(Cl)ccc34)nc(N)c21 (single isomer, unassigned) [Example 261C, 3-[1-{4-Amino-2-[6-chloro-1-(2-fluorobenzyl)-1H-indazol-3-yl]-5-methyl-6-oxo-6,7-dihydro-5H-pyrrolo[2,3-d]pyrimidin-5-yl}pyrrolidin-3-yl]propanoic acid]"
5.46,9.94,135%,–,"CC(C)(Cc1coc(C2(C3CC3)C(=O)Nc3nc(-c4nn(Cc5ccccc5F)c5cc(F)ccc45)nc(N)c32)n1)C(=O)O (stereo not drawn) [Example 139B, 3-(2-{4-amino-5-cyclopropyl-2-[6-fluoro-1-(2-fluorobenzyl)-1H-indazol-3-yl]-6-oxo-6,7-dihydro-5H-pyrrolo[2,3-d]pyrimidin-5-yl}-1,3-oxazol-4-yl)-2,2-dimethylpropanoic acid]"
6.05,9.49,115%,–,"CC1(c2ccc(CCC(=O)O)c(O)c2)C(=O)Nc2nc(-c3nn(CCC(F)(F)C(F)(F)F)c4cc(Cl)ccc34)nc(N)c21 (stereo not drawn) [Example 122B, 3-(4-{4-Amino-2-[6-chloro-1-(3,3,4,4,4-pentafluorobutyl)-1H-indazol-3-yl]-5-methyl-6-oxo-6,7-dihydro-5H-pyrrolo[2,3-d]pyrimidin-5-yl}-2-hydroxyphenyl)propanoic acid]"
6.18,9.93,130%,–,"Cc1oc(C2(C)C(=O)Nc3nc(-c4nn(Cc5ccccc5F)c5cc(Cl)ccc45)nc(N)c32)nc1CC(C)(C)C(=O)O (stereo not drawn) [Example 170B, 3-(2-{4-amino-2-[6-chloro-1-(2 fluorobenzyl)-1H-indazol-3-yl]-5-methyl-6-oxo-6,7-dihydro-5H-pyrrolo[2,3-d]pyrimidin-5-yl}-5-methyl-1,3-oxazol-4-yl)-2,2-dimethylpropanoic acid]"
5.97,10.02,104%,–,"C[C@@]1(c2ccc(CCC(=O)O)cc2)C(=O)Nc2nc(-c3nn(Cc4ncccc4F)c4cc(Cl)ccc34)nc(N)c21 (single isomer, unassigned) [Example 57B]"
5.15,9.66,–,–,"CC1(c2ccc(CCc3nn[nH]n3)cn2)C(=O)Nc2nc(-c3nn(Cc4ccccc4F)c4ccccc34)nc(N)c21 (single isomer, unassigned) [Example 246A, 5-{5-[2-(2H-tetrazol-5-yl)ethyl]pyridin-2-yl}-4-amino-2-[1-(2-fluoro-benzyl)-1H-indazol-3-yl]-5-methyl-5,7-dihydro-6H-pyrrolo[2,3-d] pyrimidin-6-one]"
6.85,10.02,105%,–,"CCCCCn1nc(-c2nc(N)c3c(n2)NC(=O)[C@@]3(C)c2ccc(CCC(=O)O)cc2)c2ccc(Cl)cc21 [Example 43B, (S)-3-{4-[4-amino-2-(6-chloro-1-pentyl-1H-indazol-3-yl)-5-methyl-6-oxo-6,7-dihydro-5H-pyrrolo[2,3-d]pyrimidin-5-yl]phenyl}propanoic acid]"
6.52,10.18,109%,–,"CC1(c2cccc(CCC(=O)O)c2)C(=O)Nc2nc(-c3nn(Cc4ccccc4F)c4cc(F)ccc34)nc(N)c21 (stereo not drawn) [Example 61A, 3-(3-{4-amino-2-[6-fluoro-1-(2-fluorobenzyl)-1H-indazol-3-yl]-5-methyl-6-oxo-6,7-dihydro-5H-pyrrolo[2,3-d]pyrimidin-5-yl}phenyl)propanoic acid]"
